Laboratory results from BindingDB's records for patent US12227501 (Bayer Aktiengesellschaft, 2025).

Legend:
[1] = target: T1, Casein kinase I isoform alpha (Homo sapiens, UniProt P48729); assay: CSNK1A1 Assay 1
Procedure: Inhibitory activity of compounds of the present invention in presence of 1 μM adenosine-tri-phosphate (ATP) was quantified employing the CSNK1A1 assay as described in the following paragraphs. In essence, the enzyme activity is measured by quantification of the adenosine-di-phosphate (ADP), which is generated as a co-product of the enzyme reaction, via the “ADP-Glo™ Kinase Assay” kit from the company Promega. This detection system works as follows: In a first step the ATP not consumed in the kinase reaction is quantitatively converted to cAMP employing an adenylate cyclase (“ADP-Glo-reagent”), then the adenylate cyclase is stopped and the ADP generated in the kinase reaction converted to ATP which generates in a luciferase-based reaction a glow-luminescence signal (“Kinase Detection Reagent”). Recombinant fusion protein of N-terminal Glutathion-S-Transferase (GST) and full-length human CSNK1A1, expressed by baculovirus infected insect cells and purified via Glutathion affinity chromatography, was purchased from Life Technologies (product no. PV4174) and used as enzyme. As substrate for the kinase reaction the biotinylated peptide Btn-Ahx-[…] (C-terminus in amide form) was used which can be purchased e.g. from the company Biosyntan (Berlin-Buch, Germany).

[2] = target: T2, Epidermal growth factor receptor [669-1210] (UniProt P00533); assay: WT-EGFR Kinase Assay
T2 construct: 669-1210
T2 sequence (P00533 669-1210): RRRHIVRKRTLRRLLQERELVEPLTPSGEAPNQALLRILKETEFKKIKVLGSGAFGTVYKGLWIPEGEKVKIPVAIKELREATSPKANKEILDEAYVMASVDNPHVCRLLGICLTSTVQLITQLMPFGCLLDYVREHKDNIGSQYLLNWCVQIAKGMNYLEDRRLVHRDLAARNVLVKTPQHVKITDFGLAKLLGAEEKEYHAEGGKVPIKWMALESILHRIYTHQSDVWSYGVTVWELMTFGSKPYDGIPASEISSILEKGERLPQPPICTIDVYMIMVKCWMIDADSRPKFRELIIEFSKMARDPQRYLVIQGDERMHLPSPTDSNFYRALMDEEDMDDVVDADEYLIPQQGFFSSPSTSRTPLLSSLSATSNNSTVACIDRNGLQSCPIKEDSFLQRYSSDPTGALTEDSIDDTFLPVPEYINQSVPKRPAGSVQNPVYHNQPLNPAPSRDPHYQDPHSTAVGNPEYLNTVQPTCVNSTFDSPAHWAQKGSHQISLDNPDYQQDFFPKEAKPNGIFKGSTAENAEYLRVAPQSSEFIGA
Procedure: For the assay 50 nl of a 100 fold concentrated solution of the test compound in DMSO was pipetted into either a black low volume 384 well microtiter plate or a black 1536 well microtiter plate (both Greiner Bio-One, Frickenhausen, Germany), 2 μL of a solution of EGFR in aqueous assay buffer [50 mM Hepes pH 7.0, 10 mM MgCl2, 1 mM dithiothreitol, 0.5 mM EGTA, 0.3 mM activated sodium ortho-vanadate, 0.005% (w/v) bovine serum albumin, 0.005% (v/v) Tween-20] were added and the mixture was incubated for 15 min at 22° C. to allow pre-binding of the test compounds to the enzyme before the start of the kinase reaction. […] The concentration of EGFR was adjusted depending of the activity of the enzyme lot and was chosen appropriate to have the assay in the linear range, typical concentration was 7.6 pg/μL. […] Subsequently the amount of phosphorylated substrate was evaluated by measurement of the resonance energy transfer from the PT66-Tb-Cryptate to the streptavidine-XL665.

[3] = target: T1, Casein kinase I isoform alpha; assay: CSNK1A1 Assay 2
Procedure: For the assay 50 nl of a 100 fold concentrated solution of the test compound in DMSO was pipetted into a white 1536-well microtiter plate (Greiner Bio-One, Frickenhausen, Germany), 2 μL of a solution of CSNK1A1 in aqueous assay buffer [50 mM HEPES pH 7.5, 10% (v/v) glycerol, 10 mM MgCl2, 50 mM NaCl, 1 mM dithiothreitol, 0.01% (w/v) bovine serum albumin, 0.01% (v/v) Triton X-100] were added and the mixture was incubated for 15 min at 22° C. to allow pre-binding of the test compounds to the enzyme before the start of the kinase reaction. […] The concentration of CSNK1A1 was adjusted depending of the activity of the enzyme lot and was chosen appropriate to have the assay in the linear range, a typical concentrations are about 0.0375 ng/μL. The reaction was stopped by the addition of 2.5 μL of “ADP-Glo-reagent” (1:1.5 fold diluted with water) and the resulting mixture was incubated at 22° C. for 1 h to convert the ATP not consumed in the kinase reaction completely […]. Subsequently 2.5 μL of the “kinase detection reagent” (1.2 fold more concentrated than recommended by the producer) were added, the resulting mixture was incubated at 22° C. for 1 h and then the luminescence measured with a suitable measurement instrument (e.g. Viewlux™ from Perkin-Elmer).

[4] = target: Casein kinase I isoform delta (Homo sapiens, UniProt P48730); assay: CSNK1D Assay
Casein kinase I isoform delta, sequence (P48730 whole entry, canonical isoform): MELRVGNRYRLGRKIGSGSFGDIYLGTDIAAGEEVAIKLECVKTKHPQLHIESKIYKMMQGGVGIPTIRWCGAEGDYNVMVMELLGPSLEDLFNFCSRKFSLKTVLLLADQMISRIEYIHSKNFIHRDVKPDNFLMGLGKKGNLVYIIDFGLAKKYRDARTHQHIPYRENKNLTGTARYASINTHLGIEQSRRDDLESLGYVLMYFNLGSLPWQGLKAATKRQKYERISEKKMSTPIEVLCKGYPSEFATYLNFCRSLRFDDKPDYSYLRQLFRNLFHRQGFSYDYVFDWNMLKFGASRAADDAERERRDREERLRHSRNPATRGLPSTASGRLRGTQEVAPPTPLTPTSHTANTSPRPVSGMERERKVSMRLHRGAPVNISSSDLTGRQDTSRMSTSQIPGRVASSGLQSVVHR
Procedure: For the assay 50 nl of a 100 fold concentrated solution of the test compound in DMSO was pipetted into a white 1536-well microtiter plate (Greiner Bio-One, Frickenhausen, Germany), 2 μL of a solution of CSNK1D in aqueous assay buffer [50 mM HEPES pH 7.5, 10% (v/v) glycerol, 10 mM MgCl2, 50 mM NaCl, 1 mM dithiothreitol, 0.01% (w/v) bovine serum albumin, 0.01% (v/v) Triton X-100] were added and the mixture was incubated for 15 min at 22° C. to allow pre-binding of the test compounds to the enzyme before the start of the kinase reaction. […] The concentration of CSNK1 D was adjusted depending of the activity of the enzyme lot and was chosen appropriate to have the assay in the linear range, a typical concentration is about 0.5 ng/μL. The reaction was stopped by the addition of 2.5 μL of “ADP-Glo-reagent” (1:1.5 fold diluted with water) and the resulting mixture was incubated at 22° C. for 1 h to convert the ATP not consumed in the kinase reaction completely […]. Subsequently 2.5 μL of the “kinase detection reagent” (1.2 fold more concentrated than recommended by the producer) were added, the resulting mixture was incubated at 22° C. for 1 h and then the luminescence measured with a suitable measurement instrument (e.g. Viewlux™ from Perkin-Elmer). The amount of emitted light was taken as a measure for the amount of ADP generated and thereby for the activity of the CSNK1D.

[5] = target: T1, Casein kinase I isoform alpha; assay: CSNK1A1 High ATP Assay
Procedure: For the assay 50 nl of a 100 fold concentrated solution of the test compound in DMSO was pipetted into a white low volume 384-well microtiter plate (Greiner Bio-One, Frickenhausen, Germany), 2 μL of a solution of CSNK1A1 in aqueous assay buffer [50 mM HEPES pH 7.5, 10% (v/v) glycerol, 10 mM MgCl2, 50 mM NaCl, 1 mM dithiothreitol, 0.01% (w/v) bovine serum albumin, 0.01% (v/v) Triton X-100] were added and the mixture was incubated for 15 min at 22° C. to allow pre-binding of the test compounds to the enzyme before the start of the kinase reaction. […] The concentration of CSNK1A1 was adjusted depending of the activity of the enzyme lot and was chosen appropriate to have the assay in the linear range, a typical concentration is about 0.4 ng/μL. The reaction was stopped by the addition of 2.5 μL of “ADP-Glo-reagent” (1:1.5 fold diluted with water) and the resulting mixture was incubated at 22° C. for 1 h to convert the ATP not consumed in the kinase reaction completely […]. Subsequently 2.5 μL of the “kinase detection reagent” (1.2 fold more concentrated than recommended by the producer) were added, the resulting mixture was incubated at 22° C. for 1 h and then the luminescence measured with a suitable measurement instrument (e.g. Viewlux™ from Perkin-Elmer). The amount of emitted light was taken as a measure for the amount of ADP generated and thereby for the activity of the CSNK1A1.

T1 sequence (P48729 whole entry, canonical isoform): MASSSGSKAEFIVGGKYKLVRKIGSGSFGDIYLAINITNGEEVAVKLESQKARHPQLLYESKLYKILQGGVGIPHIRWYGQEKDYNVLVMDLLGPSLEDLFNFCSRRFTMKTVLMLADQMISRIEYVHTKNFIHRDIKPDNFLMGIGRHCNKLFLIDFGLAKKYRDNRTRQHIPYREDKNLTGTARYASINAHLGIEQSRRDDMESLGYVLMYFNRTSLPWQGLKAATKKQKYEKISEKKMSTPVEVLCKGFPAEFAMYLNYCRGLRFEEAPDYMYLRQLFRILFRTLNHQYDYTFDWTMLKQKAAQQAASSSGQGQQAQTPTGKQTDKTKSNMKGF

SMILES | IC50 [1] | IC50 [2] | IC50 [3] | IC50 [4] | IC50 [5]
CN1CCc2[nH]c(-c3ccnc(NC(=O)[C@@H]4C[C@@H]4F)c3)c(Nc3ccccc3)c2C1=O [US10428063, Example 40] | 0.0241 µM | 0.0855 µM | – | – | –
CC1(C)Cc2[nH]c(-c3ccnc(NC(=O)Cc4ccc(F)cc4)c3)c(Nc3ccccc3)c2C(=O)N1 [US12227501, Example 22] | – | 0.815 µM | 0.00423 µM | 0.0119 µM | 0.0547 µM
CC(C(=O)Nc1cc(-c2[nH]c3c(c2Nc2ccccc2F)C(=O)N(C)CC3)ccn1)c1ccc(F)cc1 (stereo not drawn) [US12227501, Example 29] | – | – | 0.00319 µM | – | 0.138 µM
O=C(Cc1ccc(F)cc1)Nc1cc(-c2[nH]c3c(c2Nc2ccccc2)C(=O)N(CC(F)(F)F)CC3)ccn1 [US12227501, Example 36] | – | > 20 µM | 0.0113 µM | – | 1.08 µM
CC(C(=O)Nc1cc(-c2[nH]c3c(c2Nc2ccccc2)C(=O)N(CC(F)(F)F)CC3)ccn1)c1ccc(F)cc1 (stereo not drawn) [US12227501, Example 37] | – | > 20 µM | 0.0226 µM | – | > 1.63 µM
Cc1cccc(CC(=O)Nc2cc(-c3[nH]c4c(c3Nc3ccccc3)C(=O)N(C)CC4)ccn2)c1 [US12227501, Example 70] | – | 2.04 µM | 0.0032 µM | 0.00366 µM | 0.14 µM
Cc1ccccc1CC(=O)Nc1cc(-c2[nH]c3c(c2Nc2ccccc2)C(=O)N(C)CC3)ccn1 [US12227501, Example 71] | – | 7.43 µM | 0.00479 µM | 0.00647 µM | 0.241 µM
Cc1ccccc1Nc1c(-c2ccnc(NC(=O)Cc3ccc(F)cc3)c2)[nH]c2c1C(=O)NC(C)(C)C2 [US12227501, Example 113] | – | – | 0.0137 µM | 0.0161 µM | 0.166 µM
CC1(C)Cc2[nH]c(-c3ccnc(NC(=O)Cc4ccc(F)cc4)c3)c(Nc3cccc(F)n3)c2C(=O)N1 [US12227501, Example 126] | – | – | 0.00444 µM | 0.0144 µM | 0.0478 µM
CC1(C)Cc2[nH]c(-c3ccnc(NC(=O)Cc4ccc(F)cc4)c3)c(Nc3cccc(F)n3)c2C(=O)N1 [US12227501, Example 127] | – | > 20 µM | 0.00474 µM | – | 0.0231 µM
Cc1c(F)cccc1Nc1c(-c2ccnc(NC(=O)Cc3ccc(F)cc3)c2)[nH]c2c1C(=O)NC(C)(C)C2 [US12227501, Example 131] | – | 1.09 µM | 0.00938 µM | 0.0116 µM | 0.464 µM
Cc1ccccc1Nc1c(-c2ccnc(NC(=O)Cc3ccc(F)cc3)c2)[nH]c2c1C(=O)NC1(CCC1)C2 [US12227501, Example 142] | – | > 20 µM | 0.0051 µM | 0.00935 µM | 0.0123 µM
CN1C(=O)c2c([nH]c(-c3ccnc(NC(=O)Cc4ccc(F)cc4)c3)c2Nc2ccccc2)CC12CCC2 [US12227501, Example 156] | – | 6.66 µM | 0.00609 µM | 0.00938 µM | 0.0297 µM
